System: 454973-116-R2-J3-PDC complex spheroid viability
Experiment: Anticancer human tumor 454973-116-R2-J3-PDC patient-derived pancreatic carcinoma cell line growth inhibition [POLQ]
Conditions: for IC50: curve of first compound; for viability, T/C: stronger effect = lower value; active means viability on the fitted dose curve at most 10% of control; inactive means the rest
How it was run: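 Growth inhibition in 3D: complex spheroids (tumor PDC, HUVEC, MSC) treated with POLQ inhibitor combinations; where Cmax unknown, highest tested concentration 10 microM, except SN-38 at 1 microM.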

[1] = second compound 0.0316 µM, first compound 0.0316 µM
[2] = second compound 0.0316 µM, first compound 0.1 µM
[3] = second compound 0.0316 µM, first compound 0.316 µM
[4] = second compound 0.0316 µM, first compound 1 µM
[5] = second compound 0.1 µM, first compound 0.0316 µM
[6] = second compound 0.1 µM, first compound 0.1 µM
[7] = second compound 0.1 µM, first compound 0.316 µM
[8] = second compound 0.1 µM, first compound 1 µM
[9] = second compound 0.316 µM, first compound 0.0316 µM
[10] = second compound 0.316 µM, first compound 0.1 µM
[11] = second compound 0.316 µM, first compound 0.316 µM
[12] = second compound 0.316 µM, first compound 1 µM
[13] = second compound 1 µM, first compound 0.0316 µM
[14] = second compound 1 µM, first compound 0.1 µM
[15] = second compound 1 µM, first compound 0.316 µM
[16] = second compound 1 µM, first compound 1 µM
[17] = second compound 3.16 µM, first compound 0.0316 µM
[18] = second compound 3.16 µM, first compound 0.1 µM
[19] = second compound 3.16 µM, first compound 0.316 µM
[20] = second compound 3.16 µM, first compound 1 µM
[21] = second compound 10 µM, first compound 0.0316 µM
[22] = second compound 10 µM, first compound 0.1 µM
[23] = second compound 10 µM, first compound 0.316 µM
[24] = second compound 10 µM, first compound 1 µM
[25] = second compound 0.0316 µM, first compound 0.00316 µM
[26] = second compound 0.0316 µM, first compound 0.01 µM
[27] = second compound 0.1 µM, first compound 0.00316 µM
[28] = second compound 0.1 µM, first compound 0.01 µM
[29] = second compound 0.316 µM, first compound 0.00316 µM
[30] = second compound 0.316 µM, first compound 0.01 µM
[31] = second compound 1 µM, first compound 0.00316 µM
[32] = second compound 1 µM, first compound 0.01 µM
[33] = second compound 3.16 µM, first compound 0.00316 µM
[34] = second compound 3.16 µM, first compound 0.01 µM
[35] = second compound 10 µM, first compound 0.00316 µM
[36] = second compound 10 µM, first compound 0.01 µM
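Further: spheroids exposed to drugs for seven days before measurement.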
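Wherever viability, T/C is given: percent viability relative to DMSO vehicle control wells taken as 100%.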

CC1COCCN1c1cc(C2(O)CC3CCC(C2)O3)c2cnn(-c3ccn[nH]3)c2n1 (stereo unspecified) + COC1C(OC(N)=O)C(O)C(Oc2ccc3c(O)c(NC(=O)c4ccc(O)c(CC=C(C)C)c4)c(=O)oc3c2C)OC1(C)C
0.197 µM: IC50 (second compound 1 µM)
0.233 µM: IC50 (second compound 0.1 µM)
0.205 µM: IC50 (second compound 0.0316 µM)
0.193 µM: IC50 (second compound 3.16 µM)
inactive: viability, T/C [1] 104% | viability, T/C [2] 74.1% | viability, T/C [3] 35.3% | viability, T/C [4] 22.1% | viability, T/C (second compound 0.0316 µM, first compound 3.16 µM) 25.1% | viability, T/C (second compound 0.0316 µM, first compound 10 µM) 15.6% | viability, T/C [5] 93.2% | viability, T/C [6] 76.9% | viability, T/C [7] 39.6% | viability, T/C [8] 24.4% | viability, T/C (second compound 0.1 µM, first compound 3.16 µM) 22.2% | viability, T/C (second compound 0.1 µM, first compound 10 µM) 15.8% | viability, T/C [9] 100% | viability, T/C [10] 75.6% | viability, T/C [11] 40.6% | viability, T/C [12] 18.9% | viability, T/C (second compound 0.316 µM, first compound 3.16 µM) 25.8% | viability, T/C (second compound 0.316 µM, first compound 10 µM) 18.4% | viability, T/C [13] 102% | viability, T/C [14] 69.6% | viability, T/C [15] 37.8% | viability, T/C [16] 18.7% | viability, T/C (second compound 1 µM, first compound 3.16 µM) 21.4% | viability, T/C (second compound 1 µM, first compound 10 µM) 20.1% | viability, T/C [17] 104% | viability, T/C [18] 73.5% | viability, T/C [19] 32.6% | viability, T/C [20] 19.3% | viability, T/C (second compound 3.16 µM, first compound 3.16 µM) 24.1% | viability, T/C (second compound 3.16 µM, first compound 10 µM) 17.6% | viability, T/C [21] 94.6% | viability, T/C [22] 68.4% | viability, T/C [23] 42.3% | viability, T/C [24] 21.5% | viability, T/C (second compound 10 µM, first compound 3.16 µM) 25.8% | viability, T/C (second compound 10 µM, first compound 10 µM) 15%
0.225 µM: IC50 (second compound 0.316 µM)
0.217 µM: IC50 (second compound 10 µM)

CC[C@@]1(O)C(=O)OCc2c1cc1n(c2=O)Cc2cc3c(CN(C)C)c(O)ccc3nc2-1 + COC1C(OC(N)=O)C(O)C(Oc2ccc3c(O)c(NC(=O)c4ccc(O)c(CC=C(C)C)c4)c(=O)oc3c2C)OC1(C)C
0.02 µM: IC50 (second compound 0.0316 µM)
0.0175 µM: IC50 (second compound 10 µM)
0.0184 µM: IC50 (second compound 0.316 µM)
inactive: viability, T/C (second compound 0.0316 µM, first compound 0.000316 µM) 113% | viability, T/C (second compound 0.0316 µM, first compound 0.001 µM) 106% | viability, T/C [25] 105% | viability, T/C [26] 86.8% | viability, T/C [1] 25.5% | viability, T/C [2] 14.9% | viability, T/C (second compound 0.1 µM, first compound 0.000316 µM) 106% | viability, T/C (second compound 0.1 µM, first compound 0.001 µM) 106% | viability, T/C [27] 103% | viability, T/C [28] 82.6% | viability, T/C [5] 17.1% | viability, T/C [6] 16.3% | viability, T/C (second compound 0.316 µM, first compound 0.000316 µM) 109% | viability, T/C (second compound 0.316 µM, first compound 0.001 µM) 100% | viability, T/C [29] 108% | viability, T/C [30] 88.9% | viability, T/C [9] 15.8% | viability, T/C [10] 13.8% | viability, T/C (second compound 1 µM, first compound 0.000316 µM) 113% | viability, T/C (second compound 1 µM, first compound 0.001 µM) 101% | viability, T/C [31] 108% | viability, T/C [32] 91.1% | viability, T/C [13] 15.8% | viability, T/C [14] 18.1% | viability, T/C (second compound 3.16 µM, first compound 0.000316 µM) 110% | viability, T/C (second compound 3.16 µM, first compound 0.001 µM) 113% | viability, T/C [33] 107% | viability, T/C [34] 79.6% | viability, T/C [17] 22.8% | viability, T/C [18] 19% | viability, T/C (second compound 10 µM, first compound 0.000316 µM) 109% | viability, T/C (second compound 10 µM, first compound 0.001 µM) 104% | viability, T/C [35] 99.9% | viability, T/C [36] 76.5% | viability, T/C [21] 21.4% | viability, T/C [22] 20.3%
0.0183 µM: IC50 (second compound 3.16 µM)
0.0178 µM: IC50 (second compound 0.1 µM)
0.0189 µM: IC50 (second compound 1 µM)

CCc1c2c(nc3ccc(O)cc13)-c1cc3c(c(=O)n1C2)COC(=O)[C@]3(O)CC + Nc1ccc(C#CCN(C(=O)Cc2ncc(C(F)(F)F)cc2C(F)(F)F)c2ccc(F)cc2)nn1
inactive: viability, T/C [25] 25.3% | viability, T/C [26] 11.3% | viability, T/C [27] 19% | viability, T/C [28] 10.4% | viability, T/C [29] 19.8% | viability, T/C [30] 11.3% | viability, T/C [31] 21.4% | viability, T/C [32] 8.67% | viability, T/C [33] 18.6% | viability, T/C [34] 9.44% | viability, T/C [35] 19% | viability, T/C [36] 10.2%
< 0.00316 µM: IC50 (second compound 0.0316 µM) | IC50 (second compound 0.1 µM) | IC50 (second compound 0.316 µM) | IC50 (second compound 1 µM) | IC50 (second compound 3.16 µM) | IC50 (second compound 10 µM)
active: viability, T/C [1] 6.56% | viability, T/C [2] 4.56% | viability, T/C [3] 1.97% | viability, T/C [4] 1.11% | viability, T/C [5] 6.53% | viability, T/C [6] 3.88% | viability, T/C [7] 2.75% | viability, T/C [8] 1% | viability, T/C [9] 8.55% | viability, T/C [10] 4.38% | viability, T/C [11] 2.3% | viability, T/C [12] 0.79% | viability, T/C [13] 6.81% | viability, T/C [14] 3.42% | viability, T/C [15] 1.98% | viability, T/C [16] 0.59% | viability, T/C [17] 7.09% | viability, T/C [18] 4.06% | viability, T/C [19] 2.05% | viability, T/C [20] 0.6% | viability, T/C [21] 5.83% | viability, T/C [22] 2.67% | viability, T/C [23] 1.43% | viability, T/C [24] 0.54%

From PubChem BioAssay AID1963846 (Molecular Pharmacology Branch, DTP, NCI, 2024)
